Results taken from patent US20250197453A1, “COMPOSITION COMPRISING TAT PEPTIDE VARIANT AS ACTIVE INGREDIENT FOR PREVENTING OR TREATING METABOLIC DISEASES” (priority 2021, published 2025).

Test system: 3T3-L1 cells
Experiment: PEGn-TAT variants: inhibition of differentiation of 3T3-L1 cells and of fatty acid synthesis
Format: cell-based
Description: 3T3-L1 cells were cultured in DMEM (high glucose, pyruvate, GIBCO CAT #11995) supplemented with 10% calf serum and 1% penicillin-streptomycin (P/S). Cells were seeded in a 6-well culture plate, and when the cells reached a confluency of 60 to 70%, MDI, a differentiation initiation medium, was added at a 1× concentration. At this time, the cells were treated with each of TAT-38, X-FAT8, and PEGn-TAT at a concentration of 1 to 10 μM. After 2 days, MDI was replaced with insulin, and each of AT-38, X-FAT8, and PEGn-TAT was added to fresh medium every day during culture. From day 4, culture was continued for 4 days in maintenance medium. Thereafter, the cell status was checked and recorded every day. When necessary, the cells were fixed and the amount of fatty acids was analyzed by Oil-O red staining.

TACTNCYCAKCCFHCQVC-(Peg)7-RAKRRQRRR [PEG7-TAT]
differentiation inhibitory ability and intracellular lipid accumulation, 3T3-L1 cells (4 days (FIG. 12A) and 6 days (FIG. 12B) after the initiation of differentiation): very high | differentiation inhibitory ability and intracellular lipid accumulation, 3T3-L1 cells (4 days after the initiation of differentiation, FIG. 11A): very high | differentiation inhibitory ability, 3T3-L1 cells (6 days after the induction of differentiation, FIG. 11B): still significant | differentiation and intracellular lipid accumulation, 3T3-L1 cells, Oil-O-Red staining (8 days after the initiation of differentiation, FIG. 13): strong inhibition of differentiation and inhibition of intracellular lipid accumulation
